What was measured:
rice = test: Test B flooded paddy test; type: in vivo, Oryza sativa; settings: Flood, scale of 0 to 100 where 0 is no effect and 100 is complete control
Method in brief: (§1)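 In-water application to pots flooded 3 cm deep, plants at 2-leaf stage. Held in greenhouse 13–15 days at constant flood depth. Scored 0–100 by eye against controls.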

waterhemp = test: Test C pre-/postemergence herbicide test; type: in vivo, Amaranthus rudis
Method in brief: (§2)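 Test compounds, formulated in a surfactant-containing non-phytotoxic solvent blend, are applied to seeded loam/sand soil (preemergence) and to young plants at the 1- to 4-leaf stage in peat-based medium (postemergence). Plants stay 13 to 15 days under greenhouse conditions, then are scored visually relative to controls, 0 = no effect, 100 = complete control.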

barnyardgrass = test: Test B flooded paddy test; type: in vivo, Echinochloa crus-galli; settings: Flood, scale of 0 to 100 where 0 is no effect and 100 is complete control
Method in brief: as §1

soybean = test: Test C pre-/postemergence herbicide test; type: in vivo, Glycine max
Method in brief: as §2

sedge, umbrella = test: Test B flooded paddy test; type: in vivo, Cyperus difformis; settings: Flood, scale of 0 to 100 where 0 is no effect and 100 is complete control
Method in brief: as §1

crabgrass, large = test: Test C pre-/postemergence herbicide test; type: in vivo, Digitaria sanguinalis
Method in brief: as §2

velvetleaf = test: Test C pre-/postemergence herbicide test; type: in vivo, Abutilon theophrasti
Method in brief: as §2

ducksalad = test: Test B flooded paddy test; type: in vivo, Heteranthera limosa; settings: Flood, scale of 0 to 100 where 0 is no effect and 100 is complete control
Method in brief: as §1

blackgrass = test: Test C pre-/postemergence herbicide test; type: in vivo, Alopecurus myosuroides
Method in brief: as §2

oilseed rape = test: Test C pre-/postemergence herbicide test; type: in vivo, Brassica napus
Method in brief: as §2

corn = test: Test A pre-/postemergence herbicide test; type: in vivo, Zea mays
Method in brief: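 Planted in loam–sand blend; treated the same day preemergence by directed soil spray, while separately grown plants at one- to two-leaf stage got postemergence spray. Compared visually with untreated controls after approximately 10 days; 100 means complete control.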

ryegrass, Italian = test: Test C pre-/postemergence herbicide test; type: in vivo, Lolium multiflorum
Method in brief: as §2

[1] = Postemergence, 31 g ai/ha, scale 0 to 100 (0 no effect, 100 complete control)
[2] = Postemergence, 62 g ai/ha, scale 0 (no effect) to 100 (complete control)
[3] = Postemergence, 125 g ai/ha, scale 0 to 100 (0 no effect, 100 complete control)
[4] = Postemergence, 250 g ai/ha, scale 0 to 100 (0 no effect, 100 complete control)
[5] = Preemergence, 31 g ai/ha, scale 0 to 100, 0 is no effect and 100 is complete control
[6] = Preemergence, 62 g ai/ha, scale 0 to 100 (0 no effect, 100 complete control)
[7] = Preemergence, 125 g ai/ha, scale 0 to 100 (0 no effect, 100 complete control)
[8] = Postemergence, 125 g ai/ha, 0 to 100 scale, 0 is no effect, 100 is complete control

Structure (SMILES): O=C1NCC(c2ccc(C(F)(F)F)cc2)C1C(=O)Nc1ccc(F)c(F)c1F (centres unmarked) [Compound 232]
- Plant response rating, Rice (rice; 500 g ai/ha): 20
- Plant response rating, Waterhemp (waterhemp; [1]): 75
- Plant response rating, Waterhemp (waterhemp; [2]): 75
- Plant response rating, Waterhemp (waterhemp; [3]): 80
- Plant response rating, Waterhemp (waterhemp; [4]): 80
- Waterhemp plant response rating (waterhemp; [5]): 85
- Waterhemp plant response rating (waterhemp; [6]): 90
- Plant response rating, Waterhemp (waterhemp; [7]): 90
- Plant response rating (scale of 0 to 100), Waterhemp (waterhemp; Preemergence, 250 g ai/ha): 95
- Plant response rating, Barnyardgrass (barnyardgrass; 500 g ai/ha): 85
- Plant response rating, Soybean (soybean; [1]): 0
- Plant response rating, Soybean (soybean; [2]): 10
- Plant response rating, Soybean (soybean; [3]): 10
- Plant response rating, Soybean (soybean; [4]): 20
- Soybean plant response rating (soybean; [5]): 0
- Soybean plant response rating (soybean; [6]): 0
- Plant response rating, Soybean (soybean; [7]): 0
- Plant response rating (scale of 0 to 100), Soybean (soybean; Preemergence, 250 g ai/ha): 5
- Plant response rating, Sedge, Umbrella (sedge, umbrella; 500 g ai/ha): 0
- Plant response rating, Crabgrass, Large (crabgrass, large; [1]): 25
- Plant response rating, Crabgrass, Large (crabgrass, large; [2]): 35
- Plant response rating, Crabgrass, Large (crabgrass, large; [3]): 60
- Plant response rating, Crabgrass, Large (crabgrass, large; [4]): 75
- Crabgrass, Large plant response rating (crabgrass, large; [5]): 85
- Crabgrass, Large plant response rating (crabgrass, large; [6]): 90
- Plant response rating, Crabgrass, Large (crabgrass, large; [7]): 90
- Plant response rating (scale of 0 to 100), Crabgrass, Large (crabgrass, large; Preemergence, 250 g ai/ha): 90
- Plant response rating, Velvetleaf (velvetleaf; [1]): 5
- Plant response rating, Velvetleaf (velvetleaf; [2]): 15
- Plant response rating, Velvetleaf (velvetleaf; [3]): 30
- Plant response rating, Velvetleaf (velvetleaf; [4]): 60
- Velvetleaf plant response rating (velvetleaf; [5]): 25
- Velvetleaf plant response rating (velvetleaf; [6]): 40
- Plant response rating, Velvetleaf (velvetleaf; [7]): 65
- Plant response rating (scale of 0 to 100), Velvetleaf (velvetleaf; Preemergence, 250 g ai/ha): 75
- Plant response rating, Ducksalad (ducksalad; 500 g ai/ha): 100
- Plant response rating, Blackgrass (blackgrass; [1]): 0
- Plant response rating, Blackgrass (blackgrass; [2]): 0
- Plant response rating, Blackgrass (blackgrass; [3]): 0
- Plant response rating, Blackgrass (blackgrass; [4]): 0
- Blackgrass plant response rating (blackgrass; [5]): 60
- Plant response rating, Blackgrass (blackgrass; Preemergence, 62 g ai/ha, scale 0 to 100): 70
- Plant response rating, Blackgrass (blackgrass; [7]): 70
- Plant response rating (scale of 0 to 100), Blackgrass (blackgrass; Preemergence, 250 g ai/ha): 85
- Plant response rating, Oilseed Rape (oilseed rape; [1]): 0
- Plant response rating, Oilseed Rape (oilseed rape; [2]): 50
- Plant response rating, Oilseed Rape (oilseed rape; [3]): 65
- Plant response rating, Oilseed Rape (oilseed rape; [4]): 40
- Oilseed Rape plant response rating (oilseed rape; [5]): 30
- Oilseed Rape plant response rating (oilseed rape; [6]): 30
- Plant response rating, Oilseed Rape (oilseed rape; [7]): 50
- Plant response rating (scale of 0 to 100), Oilseed Rape (oilseed rape; Preemergence, 250 g ai/ha): 85
- Plant response rating, Corn (corn; [8]): 80
- Corn plant response rating (0 to 100 scale, 0 is no effect, 100 is complete control) (corn; Postemergence, 500 g ai/ha): 80
- Plant response rating, Ryegrass, Italian (ryegrass, Italian; [1]): 0
- Plant response rating, Ryegrass, Italian (ryegrass, Italian; [2]): 0
- Plant response rating, Ryegrass, Italian (ryegrass, Italian; [3]): 0
- Plant response rating, Ryegrass, Italian (ryegrass, Italian; [4]): 40
- Ryegrass, Italian plant response rating (ryegrass, Italian; [5]): 0
- Ryegrass, Italian plant response rating (ryegrass, Italian; [6]): 0
- Plant response rating, Ryegrass, Italian (ryegrass, Italian; [7]): 20
- Plant response rating (scale of 0 to 100), Ryegrass, Italian (ryegrass, Italian; Preemergence, 250 g ai/ha): 40

Structure (SMILES): O=C1NCC(c2ccc(C(F)(F)F)nc2)C1C(=O)Nc1cccc(F)c1F (racemic) [Compound 263]
- Plant response rating, Rice (rice; 1000 g ai/ha): 0
- Waterhemp plant response rating (waterhemp; [5]): 75
- Waterhemp plant response rating (waterhemp; [6]): 80
- Plant response rating, Waterhemp (waterhemp; [7]): 90
- Plant response rating (scale of 0 to 100), Waterhemp (waterhemp; Preemergence, 250 g ai/ha): 100
- Plant response rating, Barnyardgrass (barnyardgrass; 1000 g ai/ha): 0
- Soybean plant response rating (soybean; [5]): 0
- Soybean plant response rating (soybean; [6]): 0
- Plant response rating, Soybean (soybean; [7]): 100
- Plant response rating (scale of 0 to 100), Soybean (soybean; Preemergence, 250 g ai/ha): 0
- Plant response rating, Sedge, Umbrella (sedge, umbrella; 1000 g ai/ha): 0
- Crabgrass, Large plant response rating (crabgrass, large; [5]): 100
- Crabgrass, Large plant response rating (crabgrass, large; [6]): 100
- Plant response rating, Crabgrass, Large (crabgrass, large; [7]): 100
- Plant response rating (scale of 0 to 100), Crabgrass, Large (crabgrass, large; Preemergence, 250 g ai/ha): 100
- Velvetleaf plant response rating (velvetleaf; [5]): 5
- Velvetleaf plant response rating (velvetleaf; [6]): 5
- Plant response rating, Velvetleaf (velvetleaf; [7]): 20
- Plant response rating (scale of 0 to 100), Velvetleaf (velvetleaf; Preemergence, 250 g ai/ha): 5
- Plant response rating, Ducksalad (ducksalad; 1000 g ai/ha): 90
- Blackgrass plant response rating (blackgrass; [5]): 0
- Blackgrass plant response rating (blackgrass; [6]): 0
- Plant response rating, Blackgrass (blackgrass; [7]): 40
- Plant response rating (scale of 0 to 100), Blackgrass (blackgrass; Preemergence, 250 g ai/ha): 70
- Oilseed Rape plant response rating (oilseed rape; [5]): 40
- Oilseed Rape plant response rating (oilseed rape; [6]): 60
- Plant response rating, Oilseed Rape (oilseed rape; [7]): 60
- Plant response rating (scale of 0 to 100), Oilseed Rape (oilseed rape; Preemergence, 250 g ai/ha): 90
- Plant response rating, Corn (corn; [8]): 40
- Plant response rating, Corn (corn; Postemergence, 500 g ai/ha, 0 to 100 scale (0 no effect, 100 complete control)): 60
- Plant response rating, Corn (corn; Preemergence, 125 g ai/ha, 0 to 100 scale where 0 is no effect and 100 is complete control): 0
- Plant response rating, Corn (corn; preemergence, 500 g ai/ha, 0 to 100 scale, 0 is no effect and 100 is complete control): 70
- Ryegrass, Italian plant response rating (ryegrass, Italian; [5]): 0
- Ryegrass, Italian plant response rating (ryegrass, Italian; [6]): 0
- Plant response rating, Ryegrass, Italian (ryegrass, Italian; [7]): 0
- Plant response rating (scale of 0 to 100), Ryegrass, Italian (ryegrass, Italian; Preemergence, 250 g ai/ha): 35
